Measurements reported in patent US11254680B2, “Cyclic iminopyrimidine derivatives as kinase inhibitors” (ABM Therapeutics Corporation, priority 2017, dated 2022).

Tests used:
[1] = tested on: A375 melanoma cells; assay: Antiproliferation assay in A375 cell line by CellTiter Glo; type: cell-based; conditions: Homo sapiens, A-375, 72 hours or 144 hours
Procedure: In vitro anti-proliferation study of test compounds in A375 cell line by CellTiter Glo. The cells were routinely maintained as a monolayer culture in corresponding culture medium, at 37° C. with 5% CO2 in air.
Harvest the exponential growth cells by trypsin-EDTA digestion. Re-suspend the cell pellet in fresh culture medium, and adjust the concentration to needed (the cell density per well was listed in following form). The cell viability is over 98% by Trypan blue staining. Inoculate cells into 96 wells plates according to the plate map (90 μL/well). Incubate the plates at 37° C. and 5% CO2 overnight. The next day, prepare the 10×compound containing medium according to the plate map. Transfer 10 μL of 10×compound containing medium into each well of the assay plates (the final DMSO concentration is 0.5%). Gently mix the medium and incubate at 37° C. and 5% CO2 for another 72 hours or 144 hours.
Prepare the reagent according to the manufacture's instruction. Add 50 μL CellTiter-Glo Reagent in each well. Mix contents for 2 minutes on an orbital shaker to induce cell lysis. Allow the plate to incubate at room temperature for 10 minutes to stabilize luminescent signal. Transfer 100 μL of reaction contents of each well from the clear plates into white walled/white opaque 96-well plates. Record the luminescence on Envision.
Using the luminescence measurements [time zero (T0), control growth (C), and test growth in the presence of drug at the six concentration levels (Ti)], the percentage growth is calculated at each of the drug concentrations levels.
Percentage growth inhibition (GI) is calculated as: GI (%)═[(Ti-T0)/(C-T0)]×100 for concentrations for which Ti>=T0, and GI (%)═[(Ti-T0)/T0]×100 for concentrations for which Ti<T0. Data were analyzed using the XLFit (Excel) tool, fitting to a 4-parameter equation to generate concentration response curves. Concentration of compound that inhibits 50% of control cell growth (GI50) was back-interpolated when y=50% of net growth of DMSO treated control wells using nonlinear regression with the equation: f(x) 205 [fit=(A+((B−A)/(1+((C/x)^))))], where A is the minimum response (Ymin), B is the maximum response (Ymax), C is the inflection point of the curve (Re GI50) and D is the Hill coefficient. Growth inhibition of 50% (GI50) was calculated at the 50% Growth inhibition on the curve. Index values were the sum of Inhibition rate (IR) at each tested compound concentration.

[2] = tested on: HT-29 colon cancer cells; assay: Antiproliferation assay in HT-29 cells by CellTiter Glo; type: cell-based; conditions: Homo sapiens, 72 hours or 144 hours
[3] = tested on: P-glycoprotein (MDR1); assay: MDCK-MDR1 Permeability Assay; type: in vitro ADME, canine; conditions: dog; for efflux ratio at 120 min: MDCK-MDR1, Papp(B-A)/Papp(A-B); for Papp A→B at 120 min: MDCK-MDR1, apical to basolateral; for Papp A→B at 120 min / Papp B→A at 120 min: 1-30 μM; for Papp B→A at 120 min: MDCK-MDR1, basolateral to apical
Procedure: MDCK-MDR1 cells originate from transfection of Madin Darby canine kidney (MDCK) cells with the MDR1 gene, the gene encoding for the efflux protein, P-glycoprotein. This cell line is ideal for identifying substrates of P-gp, with or without an inhibitor. The cells are seeded on a Multiscreen™ plate to form a confluent monolayer over 4 days prior to the experiment. On day 4, the test compound (1-30 μM concentration) is added to the apical side of the membrane and the transport of the compound across the monolayer is monitored over a 120 minutes time period. To study drug efflux, it is also necessary to investigate transport of the compound from the basolateral compartment to the apical compartment and calculate an efflux ratio.
(§1) The permeability coefficient (Papp) is calculated from the following equation: Papp=[(dQ/dt)/C0×A] where dQ/dt is the rate of permeation of the drug across the cells, C0 is the donor compartment concentration at time zero and A is the area of the cell monolayer.
An efflux ratio is calculated from the mean apical to basolateral (A-B) Papp data and basolateral to apical (B-A) Papp data. Efflux Ratio=Papp(B−A)/Papp(A−B)

[4] = Caco-2 Permeability Assay; type: in vitro ADME; conditions: human; for efflux ratio at 120 min: Caco-2; for Papp A→B at 120 min: Caco-2, apical to basolateral; for Papp A→B at 120 min / Papp B→A at 120 min: 1-30 μM; for Papp B→A at 120 min: Caco-2, basolateral to apical
Procedure: Caco-2 cells are widely used as an in vitro assay to measure the permeability of a drug compound. The Caco-2 cell line is derived from a human colorectal carcinoma, and when cultured, the cells spontaneously differentiate into monolayers of polarized enterocytes. Caco-2 cells express P-glycoprotein and breast cancer resistance protein, two of the most relevant cell membrane active transporters that affect drug compound's permeability into cells and blood brain barrier.
The cells are seeded on Millipore Millicell plates and form a confluent monolayer over 20 days prior to the experiment. On day 20, the test compound (1-30 μM concentration) is added to the apical side of the membrane and the transport of the compound across the monolayer is monitored over a 120 minutes time period. To study drug efflux, it is also necessary to investigate transport of the compound from the basolateral compartment to the apical compartment.
as §1, with “monolayer. C0 is obtained from analysis of the dosing solution at the start experiment.” for “monolayer.”

[5] = Mouse Pharmacokinetics Study; type: in vivo; conditions: CD-1 mice; for Vd / half-life / clearance / AUC / Cmax / Tmax: mouse, plasma; for Vd / half-life / clearance: IV 2.5 mg/kg; for half-life: 20% Hydroxypropyl-beta-cyclodextrin; for clearance: read-out: Clp
From the text: The pharmacokinetic properties of selected compounds were studied CD-1 mice via intravenous and oral administration by using a standard protocol. The test articles were formulated in 20% Hydroxypropyl-beta-cyclodextrin, either as a clear solution or fine suspension.

GI50 [1] [nM] | GI50 [2] [nM] | efflux ratio at 120 min [3] | Papp A→B at 120 min [3] [×10⁻⁶ cm/s] | Papp B→A at 120 min [3] [×10⁻⁶ cm/s] | efflux ratio at 120 min [4] | Papp A→B at 120 min [4] [×10⁻⁶ cm/s] | Papp B→A at 120 min [4] [×10⁻⁶ cm/s] | F ([5]; PO 30 mg/kg) [%] | Vd [5] [L/kg] | half-life [5] [h] | clearance [5] [mL/min/kg] | AUC ([5]; PO 30 mg/kg) [µg·h/mL] | Cmax ([5]; PO 30 mg/kg) [ng/mL] | Tmax ([5]; PO 30 mg/kg) [h] | F ([5]; PO 25 mg/kg) [%] | AUC ([5]; PO 25 mg/kg) [µg·h/mL] | Cmax ([5]; PO 25 mg/kg) [ng/mL] | Tmax ([5]; PO 25 mg/kg) [h] | Compound
< 100 | < 100 | 6.53 | 3.65 | 23.8 | 2.92 | 6.42 | 18.7 | 112 ± 14 | 0.348 ± 0.037 | 1.47 ± 0.19 | 2.77 ± 0.52 | 207 ± 25.9 | 37300 ± 6240 | 1 |  |  |  |  | CCCS(=O)(=O)Nc1cccc(Oc2ccc3c(c2)C2=NCCN2C=N3)c1C#N [Compound 1, N-(2-Cyano-3-((2,3-dihydroimidazo[1,2-c]quinazolin-9-yl)oxy)phenyl)propane-1-sulfonamide]
< 100 | < 100 | 1.68 | 24.1 | 40.5 | 0.36 | 52.9 | 19.2 |  | 0.948 ± 0.166 | 1.21 ± 0.1 | 9.03 ± 1.31 |  |  |  | 113 ± 11.1 | 53.8 ± 5.21 | 11700 ± 2380 | 0.5 | CCCS(=O)(=O)Nc1cccc(Oc2ccc3c(c2)C2=NCCCN2C=N3)c1Cl [Compound 21, N-(2-Chloro-3-((3,4-dihydro-2H-pyrimido[1,2-c]quinazolin-10-yl)oxy)phenyl)propane-1-sulfonamide]
